# Target: CNS nicotinic receptors
# Assay: Determination of binding to relevant receptor sites
# Settings: free base used to prepare the salts
# Procedure: Receptor binding constants provide a measure of the ability of the compound to bind to half of the relevant receptor sites of certain brain cells of the patient. See, Cheng, et al., Biochem. Pharmacol. 22:3099 (1973). The (2S)-(4E)-N-methyl-5-[3-(5-isopropoxypyridin)yl]-4-penten-2-amine compound used to prepare the salts has extremely high affinity for the relevant receptors, with a binding affinity in the low nM range.
# Binding of the compounds to relevant receptor sites was determined in accordance with the techniques described in U.S. Pat. No. 6,953,855 to Mazurov et al Inhibition constants (Ki values), reported in nM, were calculated from the IC50 values using the method of Cheng et al., Biochem, Pharmacol. 22:3099 (1973).
smiles,measurement,value
CN[C@@H](C)C/C=C/c1cncc(OC(C)C)c1 [(2S)-(4E)-N-methyl-5-[3-(5-isopropoxypyridin)yl]-4-penten-2-amine],"binding affinity (receptor binding constant, Ki)",low nM range

# Source: patent US8017785B2, “Salt forms of (2S)-(4E)-N-methyl-5-[3-(5-isopropoxypyridin)y1]-4-penten 2-amine” (AstraZeneca AB, priority 2006, dated 2011)
